Assays:
[1] = DTA
[2] = molar heat capacity at constant pressure; settings: 101.33 kPa, Small sample (50 mg) DSC
[3] = Molar enthalpy of transition or fusion; settings: DSC

O=C(O)c1cccnc1 [3-carboxylpyridine]
Settings | Molar enthalpy of transition or fusion, [3] [kcal/mol] | Triple point temperature, [1] [K]
Crystal 1 | 6.74 | 509.91
Crystal 2 | 0.215 | 455

[2]
Settings | molar heat capacity at constant pressure [J/K/mol]
296.01 K, Crystal 2 | 139.9
298.06 K, Crystal 2 | 141.2
303.2 K, Crystal 2 | 144.2
308.34 K, Crystal 2 | 147
313.48 K, Crystal 2 | 149.4
318.62 K, Crystal 2 | 152.3
323.76 K, Crystal 2 | 154.8
328.9 K, Crystal 2 | 156.5
334.04 K, Crystal 2 | 158.2
339.18 K, Crystal 2 | 159.8
343.24 K, Crystal 2 | 160.4
348.38 K, Crystal 2 | 163.3
353.52 K, Crystal 2 | 165.9
358.66 K, Crystal 2 | 167.9
363.8 K, Crystal 2 | 170
368.94 K, Crystal 2 | 171.5
374.08 K, Crystal 2 | 173.2
379.22 K, Crystal 2 | 175.4
384.37 K, Crystal 2 | 177.6
389.51 K, Crystal 2 | 179.4
394.65 K, Crystal 2 | 181.2
399.79 K, Crystal 2 | 183.5
404.93 K, Crystal 2 | 185.8
410.07 K, Crystal 2 | 189.4
415.21 K, Crystal 2 | 194.3
420.35 K, Crystal 2 | 198
425.49 K, Crystal 2 | 201.7
430.63 K, Crystal 2 | 205.3
435.77 K, Crystal 2 | 212.1
440.91 K, Crystal 2 | 219.1
448.1 K, Crystal 2 | 231.3
449.13 K, Crystal 2 | 240.6
450.16 K, Crystal 2 | 254.7
451.19 K, Crystal 2 | 273.6
452.22 K, Crystal 2 | 292.5
453.24 K, Crystal 2 | 334.7
454.27 K, Crystal 2 | 418.6
455.3 K, Crystal 2 | 440.3
456.33 K, Crystal 1 | 382.6
457.36 K, Crystal 1 | 326.3
458.38 K, Crystal 1 | 297.2
459.41 K, Crystal 1 | 280.2
460.44 K, Crystal 1 | 263.1
461.47 K, Crystal 1 | 251.7
462.5 K, Crystal 1 | 245.7
463.52 K, Crystal 1 | 239.8
464.55 K, Crystal 1 | 235.7
465.58 K, Crystal 1 | 233.6
466.61 K, Crystal 1 | 231.4
467.64 K, Crystal 1 | 229.5
468.66 K, Crystal 1 | 227.8
469.69 K, Crystal 1 | 226.1
479.97 K, Crystal 1 | 231.6
482.03 K, Crystal 1 | 232.2
487.17 K, Crystal 1 | 233.6
492.31 K, Crystal 1 | 235.1
497.45 K, Crystal 1 | 237.2
500.53 K, Crystal 1 | 245.9
503.62 K, Crystal 1 | 254.7
504.65 K, Crystal 1 | 280.5
505.67 K, Crystal 1 | 306.3
506.7 K, Crystal 1 | 422.7
507.73 K, Crystal 1 | 1073.5
508.76 K, Crystal 1 | 7052.2
510.81 K, Liquid | 1773.6
511.84 K, Liquid | 309.8
512.87 K, Liquid | 307.2
515.95 K, Liquid | 307.4
518.01 K, Liquid | 308.6
523.15 K, Liquid | 311.5
528.29 K, Liquid | 314.4
531.37 K, Liquid | 316.2

Reference: the NIST ThermoML archive (doi:10.1016/j.jct.2012.06.010)
